{
  "source": "paper PMC9220127",
  "about": "“Reactive Human Plasma Glutathione Peroxidase Mutant with Diselenide Bond Succeeds in Tetramer Formation” (Antioxidants, 2022)",
  "molecular_target": "T1, Sec−hGPx3 (human plasma glutathione peroxidase, GPx3) (Homo sapiens, UniProt P22352)",
  "T1 construct": "mature form without signal peptide (nucleotides 1-72 removed), Sec49 inserted at UAG with tRNA-UTuT6, E. coli C321.ΔA.exp, Ni-NTA purified, unglycosylated, about 25 kDa; starts QEKSKMDCHGGIS",
  "T1 sequence (P22352 25-226)": "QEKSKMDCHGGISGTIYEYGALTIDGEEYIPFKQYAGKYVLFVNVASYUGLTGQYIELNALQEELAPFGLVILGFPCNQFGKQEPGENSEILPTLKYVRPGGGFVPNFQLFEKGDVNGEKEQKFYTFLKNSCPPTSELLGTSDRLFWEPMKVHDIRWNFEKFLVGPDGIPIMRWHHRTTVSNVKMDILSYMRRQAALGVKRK",
  "assay": "glutathione reductase-coupled NADPH oxidation at […] nm",
  "type": "biochemical",
  "conditions": "60 μM t-BuOOH, 1 mM GSH, 0.25 mM NADPH, 1 mM EDTA, pH 7.4, 37 °C; non-tetrameric recombinant enzyme",
  "data": [
    {"molecule": "CC(C)(C)OO", "note": "[t−BuOOH]", "values": [
      {"measurement": "glutathione reductase-coupled NADPH oxidation at 340 nm", "value": "GR−coupled assay with H2O2 or t−BuOOH as substrates (Figure 1B), which revealed significant GPx activity"}
    ]}
  ]
}
